Values quoted from earlier work in US20100068291A1, “Oral Medicament Based on a Proton Pump Inhibitor” (FLAMEL TECHNOLOGIES, S.A., priority 2005, published 2010).

Details: in vivo

In the case of `COc1ccc2[nH]c([S+]([O-])Cc3ncc(C)c(OC)c3C)nc2c1` (stereo not shown) [omeprazole], the plasma half-life is given as 0.5-1 H.
